Residue numbers refer to the chain shown, from its start. “Also recorded” adds a separate entry of the source.
Tests used:
[1] = molecular target: T1, D880E-AR (Homo sapiens, UniProt P10275, D880E); test: cell-based
T1 sequence (P10275 1-920 D880E): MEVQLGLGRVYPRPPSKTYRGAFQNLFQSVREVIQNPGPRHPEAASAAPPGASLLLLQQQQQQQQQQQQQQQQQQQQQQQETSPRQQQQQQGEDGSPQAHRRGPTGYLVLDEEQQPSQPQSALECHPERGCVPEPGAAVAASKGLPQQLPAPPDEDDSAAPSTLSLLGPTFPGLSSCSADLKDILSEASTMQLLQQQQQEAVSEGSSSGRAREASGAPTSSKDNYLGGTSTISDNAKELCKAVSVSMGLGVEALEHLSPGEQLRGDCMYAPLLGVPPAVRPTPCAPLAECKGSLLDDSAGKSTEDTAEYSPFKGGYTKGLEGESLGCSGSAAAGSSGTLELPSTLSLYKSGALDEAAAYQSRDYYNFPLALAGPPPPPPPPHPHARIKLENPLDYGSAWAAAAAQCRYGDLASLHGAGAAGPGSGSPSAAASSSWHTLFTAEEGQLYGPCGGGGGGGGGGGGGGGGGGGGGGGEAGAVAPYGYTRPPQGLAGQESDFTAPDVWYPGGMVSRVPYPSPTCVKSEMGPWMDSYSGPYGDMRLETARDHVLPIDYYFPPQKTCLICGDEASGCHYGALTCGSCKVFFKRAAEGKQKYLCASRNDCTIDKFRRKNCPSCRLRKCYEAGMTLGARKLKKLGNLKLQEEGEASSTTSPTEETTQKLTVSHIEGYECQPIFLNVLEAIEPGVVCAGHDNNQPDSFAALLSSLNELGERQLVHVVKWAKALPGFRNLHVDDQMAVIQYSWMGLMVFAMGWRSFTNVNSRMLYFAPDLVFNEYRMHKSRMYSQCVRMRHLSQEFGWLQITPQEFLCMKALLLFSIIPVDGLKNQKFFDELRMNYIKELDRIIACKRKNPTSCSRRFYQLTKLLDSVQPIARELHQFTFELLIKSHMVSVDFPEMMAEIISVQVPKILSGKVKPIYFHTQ

[2] = molecular target: T2, WT-AR (Homo sapiens, UniProt P10275); conditions: concentrations up to 500 nM
T2 sequence (P10275 1-920): T1 sequence (P10275 1-920 D880E) with E880D

[3] = molecular target: T3, E894K-AR (Homo sapiens, UniProt P10275, E894K); test: cell-based
T3 sequence (P10275 1-920 E894K): T1 sequence (P10275 1-920 D880E) with E880D, E894K

SMILES: C[C@]12CCC(=O)C=C1CC[C@@H]1[C@@H]2[C@@H](O)C[C@@]2(C)[C@H]1CC[C@]2(O)C(=O)CO [hydrocortisone]
- EC50 [1]: > 500 nM
- Transcriptional activation of wild-type AR (in words) [2]: not activated; also recorded: did not exhibit any significant transcriptional activation
- EC50 [3]: > 500 nM
